{"source": "patent US20100324285A1", "about": "“ANTIINFLAMMATORY AGENT COMPRISING 2-AMINOPHENOL OR DERIVATIVE THEREOF AS ACTIVE INGREDIENT” (priority 2006, published 2010)", "key": {"RAW264.7 cells [1]": {"test_system": "RAW264.7 cells", "experiment": "NO production by macrophage RAW264.7, Griess method", "type": "cell-based, mouse", "settings": "LPS + IFN-γ, 2 days, relative level versus control", "from_the_text": "As macrophage cells, RAW264.7 cell strain from mouse or macrophage cells obtained from laboratory animals such as mouse can be used. The amount of produced NO can be measured by conventional Griess method. […] RAW264.7 cells, a murine macrophage cell strain, were suspended in PRMI1640 medium supplied with 10% (v/v) fetal calf serum (hereinafter abbreviated as “FCS”) to give a cell suspension with a cell concentration of 1×10^6 cells/ml. […] The experimental system without the test samples described above was set as control. […] NO production, PGE2 production and macrophage growth are indicated as relative levels versus controls."}, "RAW264.7 cells [2]": {"test_system": "RAW264.7 cells", "experiment": "PGE2 production by macrophage RAW264.7, PGE2-EIA kit", "type": "cell-based, mouse", "settings": "LPS + IFN-γ, 2 days, relative level versus control", "from_the_text": "(§1) RAW264.7 cells, a murine macrophage cell strain, were suspended in PRMI1640 medium supplied with 10% (v/v) fetal calf serum (hereinafter abbreviated as “FCS”) to give a cell suspension with a cell concentration of 1×10^6 cells/ml. […] The experimental system without the test samples described above was set as control. […] NO production, PGE2 production and macrophage growth are indicated as relative levels versus controls."}, "RAW264.7 cells [3]": {"test_system": "RAW264.7 cells", "experiment": "Macrophage growth, living cell count", "type": "cell-based, mouse", "settings": "2 days, relative level versus control", "from_the_text": "as §1"}, "iNOS": {"test_system": "iNOS", "experiment": "Amount of iNOS in cell extracts, western blotting", "type": "cell-based, mouse", "settings": "RAW264.7 cell extracts of Experiment 2, anti-iNOS antibody", "procedure": "In addition, the amount of iNOS in the cell extracts of this experiment was measured by western blotting analysis using an anti-iNOS antibody."}, "COX-1": {"target": "T1, COX-1 (Ovis aries, UniProt P05979)", "T1 construct": "purchased Cayman Chemical Company", "T1 sequence (P05979 25-600)": "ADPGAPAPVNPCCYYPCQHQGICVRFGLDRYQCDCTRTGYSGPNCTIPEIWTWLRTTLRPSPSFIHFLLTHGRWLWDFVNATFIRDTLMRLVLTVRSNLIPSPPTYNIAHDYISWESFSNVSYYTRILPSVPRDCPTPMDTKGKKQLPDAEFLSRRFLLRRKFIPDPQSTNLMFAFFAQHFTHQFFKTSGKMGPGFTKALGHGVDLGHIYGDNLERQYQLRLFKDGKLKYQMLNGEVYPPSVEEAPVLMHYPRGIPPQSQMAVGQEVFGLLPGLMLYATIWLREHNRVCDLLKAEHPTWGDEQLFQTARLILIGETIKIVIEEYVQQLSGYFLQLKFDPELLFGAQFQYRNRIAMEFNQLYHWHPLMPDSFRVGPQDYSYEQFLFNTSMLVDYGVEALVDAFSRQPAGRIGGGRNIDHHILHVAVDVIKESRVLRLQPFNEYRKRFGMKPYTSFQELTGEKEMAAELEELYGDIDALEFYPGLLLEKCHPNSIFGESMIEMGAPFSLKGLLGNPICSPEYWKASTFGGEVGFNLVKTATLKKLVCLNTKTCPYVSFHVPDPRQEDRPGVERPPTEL", "experiment": "COX Inhibitor Screening Assay Kit, COX-1", "type": "biochemical", "from_the_text": "Fifty percent inhibitory concentration (IC50) means the concentration of test sample necessary for inhibiting PGE2 synthesis by 50% compared to non-inhibitory control sample. It can be also determined by measuring the amount of PGE2 produced by adding test samples to cells having cyclooxygenase activity. COX-1/COX-2 ratio means the ratio of […], and the higher the ratio is, the more specific to COX-2 the agent is.\nTo verify the results of Experiment 2, it was investigated that whether the activity of COXs, essential enzymes for PGE2 synthesis system, can be inhibited. […] An experimental system without the test samples was set as control. The residual activity of COX-1 or COX-2 was determined as relative activity versus control."}, "β-hexosaminidase": {"test_system": "β-hexosaminidase", "experiment": "Direct inhibition of β-hexosaminidase activity of whole granule extract", "type": "biochemical, rat", "settings": "40 μM added", "procedure": "Separately, the whole granule extract described above was injected into a 96-well microplate by 50 μl per well. Each well was admixed with 50 μl of 0.1 M citrate buffer (pH 4.5) containing 1 mM PNAC and warmed at 37° C. for one hour. The reaction was stopped by adding 50 μl of 0.1 M sodium carbonate (pH 10.5), measuring the absorbance at 405 to 650 nm. As control, the same measurement as described above was carried out using BSA-containing Siraganian buffer alone. […] The resultant data was obtained by averaging the measurement values from 3 wells each of the test sample or the whole granule extract."}, "[4]": {"test_system": "Mouse melanoma cell line B16", "experiment": "Melanin synthesis in B16 cells", "type": "cell-based", "settings": "5 days, per mg protein versus control", "procedure": "(§2) As control, a system with no test sample was provided. […] The amount of protein was measured by conventional Bradfordmethod and the amount of melanin per 1 mg of protein was calculated. The amount of melanin (%) was calculated according to Formula 4, and the living cell rate (%) was calculated according to Formula 5.\nAs control, a system with no test sample was provided. […] The amount of protein was measured by conventional Bradford method and the amount of melanin per 1 mg of protein was calculated. The amount of melanin (%) was calculated according to Formula 4."}, "[5]": {"test_system": "Mouse melanoma cell line B16", "experiment": "Living cell rate of B16 cells", "settings": "5 days, versus control", "procedure": "as §2"}, "[6]": {"settings": "read-out: residual activity of COX-1"}}, "data": [{"smiles": "Nc1cc2nc3ccccc3oc-2cc1=O", "note": "[2-Aminophenoxazine-3-one, 2-aminophenoxazine-3-one]", "values": [{"measurement": "NO production (%)", "setting": "RAW264.7 cells [1]; 0.16 μM", "result": 85, "unit": "%"}, {"measurement": "NO production (%)", "setting": "RAW264.7 cells [1]; 0.31 μM", "result": 78, "unit": "%"}, {"measurement": "NO production (%)", "setting": "RAW264.7 cells [1]; 0.63 μM", "result": 70, "unit": "%"}, {"measurement": "NO production (%)", "setting": "RAW264.7 cells [1]; 1.3 μM", "result": 54, "unit": "%"}, {"measurement": "NO production (%)", "setting": "RAW264.7 cells [1]; 2.5 μM", "result": 32, "unit": "%"}, {"measurement": "NO production (%)", "setting": "RAW264.7 cells [1]; 5.0 μM", "result": 19, "unit": "%"}, {"measurement": "NO production (%)", "setting": "RAW264.7 cells [1]; 10 μM", "result": 14, "unit": "%"}, {"measurement": "PGE2 production (%)", "setting": "RAW264.7 cells [2]; 0.16 μM", "result": 76, "unit": "%"}, {"measurement": "PGE2 production (%)", "setting": "RAW264.7 cells [2]; 0.31 μM", "result": 45, "unit": "%"}, {"measurement": "PGE2 production (%)", "setting": "RAW264.7 cells [2]; 0.63 μM", "result": 13, "unit": "%"}, {"measurement": "PGE2 production (%)", "setting": "RAW264.7 cells [2]; 1.3 μM", "result": 6, "unit": "%"}, {"measurement": "PGE2 production (%)", "setting": "RAW264.7 cells [2]; 2.5 μM", "result": 1, "unit": "%"}, {"measurement": "PGE2 production (%)", "setting": "RAW264.7 cells [2]; 5.0 μM", "result": 3, "unit": "%"}, {"measurement": "PGE2 production (%)", "setting": "RAW264.7 cells [2]; 10 μM", "result": 2, "unit": "%"}, {"measurement": "Macrophage growth (%)", "setting": "RAW264.7 cells [3]; 0.16 μM", "result": 117, "unit": "%"}, {"measurement": "Macrophage growth (%)", "setting": "RAW264.7 cells [3]; 0.31 μM", "result": 121, "unit": "%"}, {"measurement": "Macrophage growth (%)", "setting": "RAW264.7 cells [3]; 0.63 μM", "result": 127, "unit": "%"}, {"measurement": "Macrophage growth (%)", "setting": "RAW264.7 cells [3]; 1.3 μM", "result": 127, "unit": "%"}, {"measurement": "Macrophage growth (%)", "setting": "RAW264.7 cells [3]; 2.5 μM", "result": 119, "unit": "%"}, {"measurement": "Macrophage growth (%)", "setting": "RAW264.7 cells [3]; 5.0 μM", "result": 112, "unit": "%"}, {"measurement": "Macrophage growth (%)", "setting": "RAW264.7 cells [3]; 10 μM", "result": 86, "unit": "%"}, {"measurement": "amount of iNOS", "setting": "iNOS", "result": "decreased depending on the 2-aminophenoxazine-3-one concentration"}, {"measurement": "IC50", "setting": "COX-1; PGE2 from arachidonic acid, read-out: IC50 COX-1", "result": 6.44, "unit": "µM"}, {"measurement": "remaining activity at 1.9 µM", "setting": "COX-1; [6]", "result": 89, "unit": "%"}, {"measurement": "remaining activity at 3.8 µM", "setting": "COX-1; [6]", "result": 59, "unit": "%"}, {"measurement": "remaining activity at 7.6 µM", "setting": "COX-1; [6]", "result": 44, "unit": "%"}, {"measurement": "inhibition rate of β-hexosaminidase activity", "setting": "β-hexosaminidase", "result": "−9.9", "unit": "%"}, {"measurement": "Amount of melanin (%)", "setting": "[4]; 0.5 μM", "result": 74, "unit": "%"}, {"measurement": "Amount of melanin (%)", "setting": "[4]; 1 μM", "result": 69, "unit": "%"}, {"measurement": "Amount of melanin (%)", "setting": "[4]; 2 μM", "result": 61, "unit": "%"}, {"measurement": "Living cell rate (%)", "setting": "[5]; 0.5 μM", "result": 107, "unit": "%"}, {"measurement": "Living cell rate (%)", "setting": "[5]; 1 μM", "result": 95, "unit": "%"}, {"measurement": "Living cell rate (%)", "setting": "[5]; 2 μM", "result": 77, "unit": "%"}]}]}
